Read-outs that look alike come from different tables or passages of the source.
Experiments:
[1] = system: Staphylococcus bacteria; assay: In vitro antibacterial activity of Lysostaphin and LysK fusion variants; format: cell-based; details: Lysostaphin variants; with EDTA 0.5 mM; 10^6 cells/ml; 30 minutes at RT
[2] = system: P. aeruginosa PAO1p; assay: In vitro antibacterial activity (log reduction) of modified OBPgpLys fusion variants; format: cell-based; details: 10^6 cells/ml, 30 minutes at RT
Experimental: (§1) Exponential growing Gram-negative bacterial cells (OD600 nm=0.6) were 100-fold diluted to a final density of about 10^6 cells/ml in 5 mM HEPES pH 7.4 and incubated for 30 minutes at room temperature without shaking with the different modified OBPgpLYS variants (in Elution Buffer in an end concentration of 1500 nM). After incubation cell suspensions and as a control untreated bacterial cells without any added modified OBPgpLYS variant were diluted three times (respectively 10^5-10^4-10^3 cells/ml) in 1× concentrated PBS buffer and 100 μl of each dilution was plated out on LB-medium. […] All samples were replicated in threefold. Averages +/− standard deviations are represented.
(§2) The production of OBPgpLys with two peptide stretches is described above in Example 1. Moreover, the purification of the fusion proteins and the antimicrobial activity assay was performed as described already in Example 1.

[3] = system: P. putida G1; assay: as above; format: cell-based; details: 10^6 cells/ml, 30 minutes at RT
Experimental: as §1, §2

[4] = system: E. coli XL1 blue; format: cell-based; details: 10^6 cells/ml, 30 minutes at RT; for Average log reduction, E. coli. X1-1: Table 9, with EDTA 0.5 mM; for Average log reduction, E. coli XL1 blue: 1500 nM protein
Experimental: . After incubation cell suspensions and as a control untreated bacterial cells without any added modified OBPgpLYS variant were diluted three times (respectively 10^5-10^4-10^3 cells/ml) in 1× concentrated PBS buffer and 100 μl of each dilution was plated out on LB-medium. […] All samples were replicated in threefold. Averages +/− standard deviations are represented.
as §2

[5] = system: S. typhimurium LT2; assay: In vitro antibacterial activity (log reduction) of modified OBPgpLys fusion variants; format: cell-based, Salmonella typhimurium; details: 10^6 cells/ml, 30 minutes at RT; for Average log reduction, Salmonella typhimurium LT2: Table 9, with EDTA 0.5 mM; for Average log reduction, S. typhimurium LT2: 1500 nM protein
Experimental: After incubation cell suspensions and as a control untreated bacterial cells without any added modified OBPgpLYS variant were diluted three times (respectively 10^5-10^4-10^3 cells/ml) in 1× concentrated PBS buffer and 100 μl of each dilution was plated out on LB-medium. […] All samples were replicated in threefold. Averages +/− standard deviations are represented.
as §2

[6] = with EDTA 0.5 mM (B), 1500 nM protein
[7] = without EDTA (A), 1500 nM protein

Substance | Average log reduction, Staphylococcus [1] | Average log reduction, P. aeruginosa PAO1p ([2]; Table 9, with EDTA 0.5 mM) | Average log reduction, P. aeruginosa PAO1p [2, 6] [log] | Average log reduction, P. aeruginosa PAO1p [2, 7] [log] | Average log reduction, P. putida G1 ([3]; Table 9, with EDTA 0.5 mM) | Average log reduction, P. putida G1 [3, 6] [log] | Average log reduction, P. putida G1 [3, 7] [log] | Average log reduction, E. coli. X1-1 [4] | Average log reduction, E. coli XL1 blue ([4]; with EDTA 0.5 mM (B)) [log] | Average log reduction, E. coli XL1 blue ([4]; without EDTA (A)) [log] | Average log reduction, Salmonella typhimurium LT2 [5] | Average log reduction, S. typhimurium LT2 ([5]; with EDTA 0.5 mM (B)) [log] | Average log reduction, S. typhimurium LT2 ([5]; without EDTA (A)) [log]
Sarcotoxin IA-Lysostaphin: Lysostaphin fusion variant with one peptide stretch, Sarcotoxin IA, N-terminal | ++ (++: 2-3 log) | – | – | – | – | – | – | – | – | – | – | – | –
α4-PK-OBPgpLys: α4-helix of T4-lysozyme, then polycationic peptide PK, N-terminally fused to endolysin OBPgpLys | – | +++ (+++: 4 or more logs) | 5.23 | 0.59 | ++ (++: 2-3 log) | 2.98 | 0.02 | + (+: 1 log) | 0.58 | 0.55 | + (+: 1 log) | 0.35 | 0.22
Walmagh1-PK-OBPgpLYS: hydrophobic peptide Walmagh 1, then PK, N-terminally fused to endolysin OBPgpLys | – | – | 3.66 | 0.20 | – | 3.22 | 0.29 | – | 1.70 | 1.46 | – | 0.17 | 0.12
Parasin1-PK-OBPgpLys: antimicrobial peptide Parasin 1, then PK, N-terminally fused to endolysin OBPgpLys | – | +++ (+++: 4 or more logs) | 4.92 | 0.75 | ++ (++: 2-3 log) | 2.32 | 0.16 | ++ (++: 2-3 log) | 1.00 | 0.70 | + (+: 1 log) | 0.28 | 0.27
PK-α4-OBPgpLys: polycationic peptide PK, then α4-helix of T4-lysozyme, N-terminally fused to endolysin OBPgpLys | – | +++ (+++: 4 or more logs) | 5.07 | 1.10 | ++ (++: 2-3 log) | 2.97 | 0.01 | ++ (++: 2-3 log) | 0.86 | 0.54 | + (+: 1 log) | 0.29 | 0.23
Lysostaphin: bacteriocin degrading Staphylococcus cell walls | + (+: 1 log) | – | – | – | – | – | – | – | – | – | – | – | –
Lysostaphin-Sarcotoxin IA: Lysostaphin fusion variant with one peptide stretch, Sarcotoxin IA, C-terminal | ++ (++: 2-3 log) | – | – | – | – | – | – | – | – | – | – | – | –

— US20130344055A1, “ANTIMICROBIAL AGENTS” (priority 2010, published 2013)
